Consider one compound from patent US20240216407A1, “NOVEL POLYPHENOL COMPOUND” (NABOCUL COSMETICS CO., LTD., priority 2021, published 2024).

This assay has as its system collagen gene (COL1A1 gene). As to the kind of experiment: Promotion of collagen gene (COL1A1) mRNA expression in HaCaT cells, real-time PCR (QPCR). It counts as cell-based, human. The note with it: for increase of the expression level of the collagen gene (COL1A1 mRNA) compared to the control: 24 hours culture. The procedure: The OLANDU obtained in Example 2 was used to examine the effect of promoting the expression of collagen gene (COL1A1 gene) in a HaCaT cell that is a human epidermis-derived keratinocyte cell line.
First, the HaCaT cells were cultured in a DMEM medium (containing 10% FBS, 100 U/mL penicillin and […] streptomycin) in the presence of 5% CO2 at 37° C. and saturated humidity. Next, the HaCaT cells adjusted to a cell concentration of 5×10^5 cells/mL were seeded in each well of a 6-well cell culture plate and cultured in a CO2 incubator (5% CO2, 37° C.) for 24 hours. Thereafter, the OLANDU isolated in Example 2 was added to each well to provide a final concentration different from each other. Specifically, the final concentrations of OLANDU in the HaCaT cell culture medium were 1 μM, 5 μM, 10 μM, 50 μM and 100 μM, respectively. A well to which the OLANDU had not been added was used as a control (0 μM). After addition, they were subjected to culture for 24 hours.
After completion of the culture, the HaCaT cells were collected from each well, and total RNA was extracted with an RNA extraction reagent (RNAzol®, a product available from Molecular Research Center, Inc.). The concentration of total RNA obtained by extraction was confirmed with an ultratrace spectrophotometer (NanoDrop; a product available from Thermo Fisher Scientific). To this total RNA were added an oligo dT primer, a dNTP Mix, a 5×1st strand buffer, an RNase inhibitor, DTT and an M-MLV reverse transcriptase to synthesize cDNA from the total RNA. This cDNA was subjected to real-time PCR (QPCR) to measure the expression level of the collagen gene.
QPCR was performed with a commercially available QPCR reagent kit and QPCR measurement device (LightCycler® 480; a product available from Roche Diagnostics K. K.), and the detection was performed with SYBR® Green that is a double-stranded DNA-binding fluorescent dye. The COL1A1 gene encoding the α1 chain of type I collagen was selected as a target gene, and the primers of SEQ ID NOs: 1 and 2 shown in Table 1 below were used as QPCR primers. […]
(Quantitative PCR measures a nucleic acid by following its amplification.)

On to `COc1ccc(/C=C/C(=O)OC[C@H]2O[C@H](OC(=O)c3cc(O)c(O)c(O)c3)[C@H](O)[C@@H](O)[C@@H]2O)cc1O` [OLANDU], for which the “increase of the expression level of the collagen gene (COL1A1 mRNA) compared to the control” value (OLANDU 1 μM, control = 100) is “approximately two-fold” and the “increase of the expression level of the collagen gene (COL1A1 mRNA) compared to the control” value (OLANDU 10 μM, control = 100, highest expression-promoting action) was “more than three-fold”. For the same compound, the “expression level of the collagen gene (COL1A1 mRNA) compared to the control without OLANDU” value (OLANDU 1, 5, 10, 50 and 100 μM, 24 hours culture (FIG. 11)) is “greatly increased the expression level of the collagen gene”.
